From patent US12133529B2, “Herbicidal phenylethers” (BASF SE, priority 2017, dated 2024)

Key:
Assay type in all cases: in vivo
[1] = test system: ECHCG (Echinocloa crus-galli); assay: greenhouse herbicidal activity, post-emergence treatment; conditions: scale from 0 to 100; for pest or weed control at 16 g/ha: Echinochloa crus-galli, post-emergence method, application rate 16 g/ha, read-out: herbicidal activity against ECHCG; for damages unwanted plants ECHCG: post-emergence application, 2 g/ha, control 21 days after treatment (greenhouse)
From the text: (§1) The seeds of the test plants were sown separately for each species. For the post-emergence treatment, the test plants were first grown to a height of 3 to 15 cm, depending on the plant habit, and only then treated with the active ingredients which had been suspended or emulsified in water. For this purpose, the test plants were either sown directly and grown in the same containers, or they were first grown separately as seedlings and transplanted into the test containers a few days prior to treatment. Depending on the species, the plants were kept at 10-25° C. or 20-35° C., respectively. The test period extended over 2 to 4 weeks. During this time, the plants were tended, and their response to the individual treatments was evaluated. Evaluation was carried out using a scale from 0 to 100. 100 means no emergence of the plants, or complete destruction of at least the aerial moieties, and 0 means no damage, or normal course of growth. A good herbicidal activity is given at values of at least 70 and a very good herbicidal activity is given at values of at least 85. [table]

[2] = test system: AMARE (Amaranthus retroflexus); assay: as above; conditions: post-emergence method, application rate 16 g/ha, scale from 0 to 100, read-out: herbicidal activity against AMARE
From the text: as §1

[3] = test system: CHEAL (Chenopodium album); assay: as above; conditions: post-emergence method, application rate 16 g/ha, scale from 0 to 100, read-out: herbicidal activity against CHEAL
From the text: as §1

SETVI (Setaria viridis) = assay: as above; conditions: post-emergence method, application rate 16 g/ha, scale from 0 to 100, read-out: herbicidal activity against SETVI
From the text: as §1

ZEAMX (Zea mays) [4] = assay: greenhouse crop plant damage, post-emergence treatment; conditions: post-emergence application, 2 g/ha, control 21 days after treatment (greenhouse), scale from 0 to 100
From the text: as §1

[5] = test system: AMARE (Amaranthus retroflexus); assay: greenhouse herbicidal activity, pre-emergence treatment; conditions: pre-emergence application, 32 g/ha, control 21 days after treatment (greenhouse), scale from 0 to 100
From the text: (§2) The seeds of the test plants were sown separately for each species. For the pre-emergence treatment, the active ingredients, which had been suspended or emulsified in water, were applied directly after sowing by means of finely distributing nozzles. The containers were irrigated gently to promote germination and growth and subsequently covered with transparent plastic hoods until the plants had rooted. This cover caused uniform germination of the test plants, unless this had been impaired by the active ingredients. Depending on the species, the plants were kept at 10-25° C. or 20-35° C., respectively. The test period extended over 2 to 4 weeks. During this time, the plants were tended, and their response to the individual treatments was evaluated. Evaluation was carried out using a scale from 0 to 100. 100 means no emergence of the plants, or complete destruction of at least the aerial moieties, and 0 means no damage, or normal course of growth. A good herbicidal activity is given at values of at least 70 and a very good herbicidal activity is given at values of at least 85. [table]

ZEAMX (Zea mays) [6] = assay: greenhouse crop plant damage, pre-emergence treatment; conditions: pre-emergence application, 32 g/ha, control 21 days after treatment (greenhouse), scale from 0 to 100
From the text: as §2

Row | SMILES | pest or weed control at 16 g/ha [1] | pest or weed control at 16 g/ha [2] | pest or weed control at 16 g/ha [3] | pest or weed control at 16 g/ha (SETVI (Setaria viridis)) | damages crop plants ZEAMX (ZEAMX (Zea mays) [4]) | damages unwanted plants ECHCG [1] | damages unwanted plants AMARE [5] | damages crop plants ZEAMX (ZEAMX (Zea mays) [6])
1 | CCOC(=O)COc1ncccc1Oc1cc(-c2nn(C)c(OC(F)F)c2Cl)c(F)cc1Cl [Example 1, ethyl 2-[[3-[2-chloro-5-[4-chloro-5-(difluoromethoxy)-1-methyl-pyrazol-3-yl]-4-fluoro-phenoxy]-2-pyridyl]oxy]acetate] | ≥ 85% | ≥ 85% | ≥ 85% | ≥ 85% | – | – | – | –
2 | CCOC(=O)COc1ncccc1Oc1cc(-n2nc3n(c2=O)CCCC3)c(Cl)cc1Cl [Example 2, ethyl 2-[[3-[2,4-dichloro-5-(3-oxo-5,6,7,8-tetrahydro-[1,2,4]triazolo[4,3-a]pyridin-2-yl)phenoxy]-2-pyridyl]oxy]acetate] | ≥ 85% | ≥ 85% | ≥ 85% | ≥ 85% | – | – | – | –
3 | CCOC(=O)COc1ncccc1Oc1cc(-n2c(=O)c(C)c(C(F)(F)F)n(C)c2=O)c(F)cc1[N+](=O)[O-] [Example 4, Ethyl 2-[[3-[5-[3,5-dimethyl-2,6-dioxo-4-(trifluoromethyl)pyrimidin-1-yl]-4-fluoro-2-nitro-phenoxy]-2-pyridyl]oxy]acetate] | ≥ 85% | ≥ 85% | ≥ 85% | ≥ 85% | – | – | – | –
4 | COC(=O)C(OC)Oc1ccccc1Oc1cc(-n2nc3n(c2=O)CCCC3)c(Cl)cc1Cl (stereo not drawn) [Example 7] | ≥ 85% | ≥ 85% | ≥ 85% | ≥ 85% | – | – | – | –
5 | O=C(O)COc1ncccc1Oc1cc(-n2nc3n(c2=O)CCCC3)c(Cl)cc1Cl [Example 8] | ≥ 85% | ≥ 85% | ≥ 85% | ≥ 85% | – | – | – | –
6 | CCOC(=O)C(C)Oc1ncccc1Oc1cc(-n2nc3n(c2=O)CCCC3)c(Cl)cc1Cl (stereo not drawn) [Example 9] | ≥ 85% | ≥ 85% | ≥ 85% | – | – | – | – | –
7 | CCOC(=O)COc1ncccc1Oc1cc(-c2nn(C)c(C(F)(F)F)cc2=O)c(F)cc1Cl [Example 15] | ≥ 85% | ≥ 85% | ≥ 85% | ≥ 85% | – | – | – | –
8 | CCOC(=O)COc1ccccc1Oc1cc(-n2c(=O)c(C)c(C(F)(F)F)n(C)c2=O)c(F)cc1Cl [Example 16] | ≥ 85% | ≥ 85% | ≥ 85% | ≥ 85% | 10 | 100 | – | –
9 | CCOC(=O)COc1ccccc1Oc1cc(-n2c(=S)cc(C(F)(F)F)n(C)c2=O)c(F)cc1Cl [Example 17] | ≥ 85% | ≥ 85% | ≥ 85% | ≥ 85% | – | – | 100 | 0
10 | CCOC(=O)COc1ncccc1Oc1cc(-c2ncc(C(F)(F)F)cc2Cl)c(F)cc1Cl [Example 18] | ≥ 85% | ≥ 85% | ≥ 85% | ≥ 85% | – | – | – | –
11 | O=C(O)COc1ncccc1Oc1cc(-c2ncc(C(F)(F)F)cc2Cl)c(F)cc1Cl [Example 19] | ≥ 85% | ≥ 85% | ≥ 85% | ≥ 85% | – | – | – | –
12 | CCOC(=O)COc1ccccc1Oc1cc(-n2c(=O)cc(C(F)(F)F)n(C)c2=O)c(F)cc1Cl [compound a-9, reference compound] | – | – | – | – | 70 | 98 | 100 | 40
